Patent US7872025B2 (Bridge Pharma, Inc., priority 1999, dated 2011)
“Also recorded” adds a separate entry of the source.

Key:
histamine H-2 = histamine H-2 (Homo sapiens, UniProt P25021); test: Histamine H-2 antagonism (no method given)
mice = test: Sedative side effects (physostigmine-induced lethality test); conditions: mouse, in vivo
Procedure: The physostigmine-induced lethality test is being used in the present studies. […] In the present study, test compounds are administered orally 60 minutes prior to physostigmine. The numbers of survivors are counted 30 minutes after physostigmine administration.

histamine H1-receptor = molecular target: T1, histamine H1-receptor (Cavia porcellus, UniProt P31389); test: Binding to histaminergic receptors (3H-pyrilamine binding); parameters: species or system guinea pig
T1 construct: from tissue; host or cells: guinea pig cerebellum membranes
Procedure: Briefly, membranes from guinea pig cerebellum are incubated with ^3H-pyrilamine and varying concentrations of the test compound(s). The specific binding of the radioactive ligand to the receptor is defined as the difference between total binding and nonspecific binding, determined in the presence of an excess of unlabelled ligand. The results are expressed as percentage of specific binding in the presence of compounds. […] These parameters are obtained by Hill equation curve fitting using Sigmaplot™ software.

[1] = system: bronchial or other smooth muscle tissues; test: Antihistaminic effects in vitro (histamine contractions of smooth muscle strips); parameters: species or system guinea pigs; conditions: listed as racemic norketotifen
Procedure: Strips of bronchial or other smooth muscle tissues are removed from the body of male guinea pigs weighing 400-600 g. The tissues are suspended in an oxygenated buffer of the composition (mM): NaCl, 133; KCl, 4.7; CaCl2, 2.5; MgSO4, 0.6; NaH2PO4, 1.3; NaHCO3, 16.3; and glucose, 7.7, or in a solution of a similar composition. The solution is maintained at 37.5 C. Contractions are recorded with isometric transducers (Model FT-10) on a Grass polygraph.
In order to assess the viability of each tissue and to serve as a frame of reference, contractions of each strip of tissue are recorded initially in response to exposure to an oxygenated buffer in which the NaCl is replaced by KCl to yield a concentration of 137.7 mM KCl. This is followed by return to the standard oxygenated buffer, and then by exposures to progressively increasing concentrations of histamine, with separate exposures to each concentration only until the peak response has been recorded. Then, leaving one tissue strip untreated, the remaining strips each are exposed for a predetermined time interval to one concentration of an antagonist. Finally, the responses to increasing concentrations of histamine followed by exposure to 137.7 mM KCl are recorded a second time.

inflammation = test: Anti-inflammatory effects (bronchial eosinophil accumulation; mouse ear croton oil inflammation); conditions: in vivo
Procedure: Inhibition of eosinophil accumulation in lung is determined in sensitized guinea pigs (400 to 600 grams) following intraperitoneal injection of an allergen such as for example PAF (platelet aggregating factor) or bovine serum albumin. At a predetermined time thereafter, the animals are killed with a barbiturate. The trachea is exposed and cannulated. 6×10 ml aliquots of buffered modified Tyrode's solution (composition: NaHCO3 11.9, NaCl 136.9, KCl 2.7, Na2HPO4 0.4, glucose 5.6, EDTA 19.8, gelatin 0.1% w/v; pH 7.4) are introduced successively and aspirated by gentle compression of the lungs. Total fluid recovery normally exceeds 80%. Cell suspensions are concentrated by low speed centrifugation (200 G for 10 min) and the resulting cell pellet is resuspended in 1 ml modified Tyrode's solution. Total cell counts are made by diluting 10 μl of cell suspension in 90 μl of Turk's fluid. Differential cell counts are made from smears fixed in methanol (100%) and stained in Leishman stain. A total of at least 500 cells per smear are counted at 1000 fold magnification, in order to differentiate cell types. Drugs are administered as sustained subcutaneous infusions from an implanted Alza minipump (Alzet 2001 or similar) or by repeated oral or repeated parenteral injections.
Dermal antiinflammatory effects are tested using the mouse ear croton oil inflammation method. This test method is based on Tarrida, J. et al., Meth. Find. Exp. Clin. Pharmacol. (1996) 18(4):233-234 and Blazzo, et al., Prostaglandins (1995) 50:161-168. In short, male mice (25-30 g) are treated with 5 ml/kg of a 2 mg/ml solution of each test compound in physiological saline by intraperitoneal injection. Thirty minutes after injection, croton oil (0, 20 μl of 1.0% croton oil in acetone) or acetone (control) is topically applied to both ears of each mouse. Animals are restrained during croton oil or acetone application and then released into a cage. Before and at predetermined time intervals following croton oil or acetone application, groups of animals are anesthetized with halothane and euthanized by cervical dislocation. […]

T1 sequence (P31389 whole entry): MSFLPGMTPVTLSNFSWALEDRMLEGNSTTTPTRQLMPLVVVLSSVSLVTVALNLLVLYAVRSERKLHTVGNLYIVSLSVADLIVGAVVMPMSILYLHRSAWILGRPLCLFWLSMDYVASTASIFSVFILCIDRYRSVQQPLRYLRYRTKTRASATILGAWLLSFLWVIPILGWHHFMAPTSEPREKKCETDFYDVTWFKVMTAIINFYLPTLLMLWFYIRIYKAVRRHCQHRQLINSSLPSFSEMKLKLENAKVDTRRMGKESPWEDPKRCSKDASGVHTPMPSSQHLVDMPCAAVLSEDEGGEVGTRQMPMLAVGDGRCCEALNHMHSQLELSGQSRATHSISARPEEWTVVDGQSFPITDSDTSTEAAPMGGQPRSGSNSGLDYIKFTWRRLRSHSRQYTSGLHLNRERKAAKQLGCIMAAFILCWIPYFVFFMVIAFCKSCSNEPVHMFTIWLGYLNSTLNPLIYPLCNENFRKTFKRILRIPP
Chain of histamine H-2 (P25021 whole entry): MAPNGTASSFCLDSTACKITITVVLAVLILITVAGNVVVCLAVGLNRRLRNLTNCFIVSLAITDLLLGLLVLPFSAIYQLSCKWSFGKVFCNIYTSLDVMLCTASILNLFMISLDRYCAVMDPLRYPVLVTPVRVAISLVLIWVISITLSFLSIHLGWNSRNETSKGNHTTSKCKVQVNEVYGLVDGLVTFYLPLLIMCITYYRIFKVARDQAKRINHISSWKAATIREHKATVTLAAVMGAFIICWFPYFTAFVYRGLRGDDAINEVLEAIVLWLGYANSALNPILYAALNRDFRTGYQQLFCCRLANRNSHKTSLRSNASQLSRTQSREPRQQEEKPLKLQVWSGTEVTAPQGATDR

Row | Compound | histamine H-2 antagonism (histamine H-2) | sedative side effects (mice) | histamine H-1 receptor antagonism / blockade (histamine H1-receptor) | antihistaminic effects [1] | anti-inflammatory effect (inflammation)
1 | CN1CCC(=C2c3ccccc3CC(=O)c3sccc32)CC1 (racemic) [ketotifen, 4-(1-methyl-4-piperidyline)-4H-benzo(4,5) cyclohepta-(1,2-b) thiophene-10-one, reference compound] | varying degree of histamine H-2 antagonism | severe and dose-limiting sedative activity | – | – | –
2 | O=C1Cc2ccccc2C(=C2CCNCC2)c2ccsc21 (racemic) [nor-ketotifen] | varying degree of histamine H-2 antagonism | little or no sedative side effect | histamine H-1 antagonists | qualitatively similar to the antihistaminic effects of racemic ketotifen; also recorded: potent anti-inflammatory and anti-histaminic properties | potent anti-inflammatory and anti-histaminic properties
3 | CN1CCC(=C2c3ccccc3CC(O)c3sccc32)CC1 (stereo not drawn) [10-hydroxy-ketotifen] | – | significantly less sedation than ketotifen | block histamine H-1 receptors | – | inhibit inflammation
4 | OC1Cc2ccccc2C(=C2CCNCC2)c2ccsc21 (stereo not drawn) [10-hydroxy-norketotifen] | – | significantly less sedation than ketotifen | block histamine H-1 receptors | – | inhibit inflammation
5 | CN1CCC(=C2c3ccccc3CC(=O)c3sccc32)CC1 [R(+)-ketotifen] | – | almost all the sedative side effects were found to reside in R(+)-ketotifen | – | – | –
6 | CN1CCC(=C2c3ccccc3CC(=O)c3sccc32)CC1 [S-isomer of ketotifen] | – | not causing the severe sedative side effects of ketotifen | – | – | –
